Laboratory results from ChEMBL document CHEMBL5360576, “New and promising type of leukotriene B4 (LTB4) antagonists based on the 1,4-benzodioxine structure” (Eur J Med Chem, 2023).

Columns and labels:
[1] = target: T1, Leukotriene B4 receptor (Homo sapiens, UniProt Q9NPC1+Q15722); test: Antagonist activity against LTB4 receptor in human U-937 cells at 0.00001 M incubated for 40 mins by liquid scintillation counting method; type: cell-based; details: dose 10 µM
[2] = target: T1, Leukotriene B4 receptor; test: Antagonist activity against LTB4 receptor in human U-937 cells at 0.0000001 M incubated for 40 mins by liquid scintillation counting method; type: cell-based; details: dose 100 nM
[3] = target: T1, Leukotriene B4 receptor; test: Antagonist activity against LTB4 receptor in human U-937 cells incubated for 40 mins by liquid scintillation counting method; type: cell-based
[4] = tested on: Rattus norvegicus; test: Antinflammatory activity against carrageenan induced pedal edema rat model assessed as average pedal volume at 30 mg/kg,po administration and measured after 1 hr (reference value: 1.82 +/- 0.04 mL); type: functional
[5] = tested on: Rattus norvegicus; test: Antinflammatory activity against carrageenan induced pedal edema rat model assessed as average pedal volume at 30 mg/kg,po administration and measured after 2 hrs (reference value: 2.2 +/- 0.1 mL); type: functional
[6] = tested on: Rattus norvegicus; test: Antinflammatory activity against carrageenan induced pedal edema rat model assessed as average pedal volume at 30 mg/kg,po administration and measured after 4 hrs (reference value: 2.41 +/- 0.05 mL); type: functional
[7] = tested on: Rattus norvegicus; test: Antinflammatory activity against carrageenan induced pedal edema rat model assessed as inflammation at 30 mg/kg,po administration and measured after 1 hr (reference value: 20.17 +/- 2.8 %); type: functional
[8] = tested on: Rattus norvegicus; test: Antinflammatory activity against carrageenan induced pedal edema rat model assessed as inflammation at 30 mg/kg,po administration and measured after 2 hrs (reference value: 45.39 +/- 6.82 %); type: functional
[9] = tested on: Rattus norvegicus; test: Antinflammatory activity against carrageenan induced pedal edema rat model assessed as inflammation at 30 mg/kg,po administration and measured after 4 hrs (reference value: 58.75 +/- 3.5 %); type: functional
[10] = tested on: Rattus norvegicus; test: Antinflammatory activity against carrageenan induced pedal edema rat model assessed as reduction in edema at 30 mg/kg,po administration and measured after 1 hr relative to control; type: functional; design: scale not given: the % may be the effect or the level left
[11] = tested on: Rattus norvegicus; test: Antinflammatory activity against carrageenan induced pedal edema rat model assessed as reduction in edema at 30 mg/kg,po administration and measured after 2 hrs relative to control; type: functional; design: scale not given: the % may be the effect or the level left
[12] = tested on: Rattus norvegicus; test: Antinflammatory activity against carrageenan induced pedal edema rat model assessed as reduction in edema at 30 mg/kg,po administration and measured after 4 hrs relative to control; type: functional; design: scale not given: the % may be the effect or the level left
[13] = tested on: Rattus norvegicus; test: Antinflammatory activity against carrageenan induced pedal edema rat model assessed as average pedal volume at 10 mg/kg,po administration and measured after 1 hr (reference value: 1.82 +/- 0.04 mL); type: functional
[14] = tested on: Rattus norvegicus; test: Antinflammatory activity against carrageenan induced pedal edema rat model assessed as average pedal volume at 10 mg/kg,po administration and measured after 2 hrs (reference value: 2.2 +/- 0.1 mL); type: functional
[15] = tested on: Rattus norvegicus; test: Antinflammatory activity against carrageenan induced pedal edema rat model assessed as average pedal volume at 10 mg/kg,po administration and measured after 4 hrs (reference value: 2.41 +/- 0.05 mL); type: functional
[16] = tested on: Rattus norvegicus; test: Antinflammatory activity against carrageenan induced pedal edema rat model assessed as inflammation at 10 mg/kg,po administration and measured after 1 hr (reference value: 20.17 +/- 2.8 %); type: functional
[17] = tested on: Rattus norvegicus; test: Antinflammatory activity against carrageenan induced pedal edema rat model assessed as inflammation at 10 mg/kg,po administration and measured after 2 hrs (reference value: 45.39 +/- 6.82 %); type: functional
[18] = tested on: Rattus norvegicus; test: Antinflammatory activity against carrageenan induced pedal edema rat model assessed as inflammation at 10 mg/kg,po administration and measured after 4 hrs (reference value: 58.75 +/- 3.5 %); type: functional
[19] = tested on: Rattus norvegicus; test: Antinflammatory activity against carrageenan induced pedal edema rat model assessed as reduction in edema at 10 mg/kg,po administration and measured after 1 hr relative to control; type: functional; design: scale not given: the % may be the effect or the level left
[20] = tested on: Rattus norvegicus; test: Antinflammatory activity against carrageenan induced pedal edema rat model assessed as reduction in edema at 10 mg/kg,po administration and measured after 2 hrs relative to control; type: functional; design: scale not given: the % may be the effect or the level left
[21] = tested on: Rattus norvegicus; test: Antinflammatory activity against carrageenan induced pedal edema rat model assessed as reduction in edema at 10 mg/kg,po administration and measured after 4 hrs relative to control; type: functional; design: scale not given: the % may be the effect or the level left
[22] = target: T1, Leukotriene B4 receptor; test: Antagonist activity against LTB4 receptor (unknown origin) assessed as inhibition constant; type: protein assay

T1 sequence (Q15722 whole entry, looked up): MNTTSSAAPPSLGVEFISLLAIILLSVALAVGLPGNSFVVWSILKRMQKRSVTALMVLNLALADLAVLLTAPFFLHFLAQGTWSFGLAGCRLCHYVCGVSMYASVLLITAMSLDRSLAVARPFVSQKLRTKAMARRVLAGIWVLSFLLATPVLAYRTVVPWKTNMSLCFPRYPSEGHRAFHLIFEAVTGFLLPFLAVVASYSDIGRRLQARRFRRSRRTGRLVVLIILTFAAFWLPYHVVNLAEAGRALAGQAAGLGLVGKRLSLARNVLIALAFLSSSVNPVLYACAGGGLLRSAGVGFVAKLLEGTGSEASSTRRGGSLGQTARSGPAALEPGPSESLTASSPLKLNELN
T1 sequence (Q9NPC1 whole entry, looked up): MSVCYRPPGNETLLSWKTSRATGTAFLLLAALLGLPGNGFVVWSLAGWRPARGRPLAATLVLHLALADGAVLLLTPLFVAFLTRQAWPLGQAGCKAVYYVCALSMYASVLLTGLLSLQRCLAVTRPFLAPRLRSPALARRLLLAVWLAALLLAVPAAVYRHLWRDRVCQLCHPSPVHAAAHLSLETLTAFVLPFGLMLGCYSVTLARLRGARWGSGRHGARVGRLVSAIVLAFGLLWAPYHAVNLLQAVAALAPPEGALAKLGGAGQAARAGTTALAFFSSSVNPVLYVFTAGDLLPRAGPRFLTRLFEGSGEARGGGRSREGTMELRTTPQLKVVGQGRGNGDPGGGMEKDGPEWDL

Question: For `CCN(CC)C(=O)C1=C(C(C)OCc2ccccc2)Oc2cc(OCc3ccccc3)ccc2O1` (configuration not stated), which inhibition ([1]; filed as antagonist) is on record?
Answer: The inhibition was 74%.

Question: What about the inhibition [2] of the same compound?
Answer: Its inhibition is under 10%.

Question: Which inhibition ([1]; filed as antagonist) does the source give for `CC(OCc1ccccc1)C1=C(C(=O)O)Oc2cc(OCc3ccccc3)ccc2O1` (configuration not stated) here?
Answer: The inhibition was 82%.

Question: And the inhibition [2]?
Answer: The inhibition was 0%.

Question: `O=C(O)C1=C(C(=O)N2CCC(c3ccccc3)CC2)Oc2ccc(OCc3ccccc3)cc2O1` was tested. Which inhibition [1] did it give?
Answer: Its inhibition is 29%.

Question: For `CC(OC/C=C/c1ccccc1)C1=C(C(=O)O)Oc2ccc(OCc3ccccc3)cc2O1` (configuration not stated), which inhibition ([1]; filed as antagonist) is on record?
Answer: The inhibition was 92%.

Question: What about the inhibition [2] of the same compound?
Answer: The inhibition was 20%.

Question: Which inhibition ([1]; filed as antagonist) does the source give for `CC(OC/C=C/c1ccccc1)C1=C(C(=O)O)Oc2cc(OCc3ccccc3)ccc2O1` (configuration not stated) here?
Answer: The inhibition was 82%.

Question: What about the inhibition [2] of the same compound?
Answer: The inhibition was 0%.

Question: Which inhibition [1] does the source give for `CN(CCc1ccccc1)C(=O)C1=C(C(=O)O)Oc2cccc(OCc3ccccc3)c2O1` here?
Answer: Its inhibition is 39%.

Question: What about the inhibition [2] of the same compound?
Answer: The inhibition was 6%.

Question: How did the inhibition ([1]; filed as antagonist) turn out when `CN(CCc1ccccc1)C(=O)C1=C(C(=O)O)Oc2cc(OCc3ccccc3)ccc2O1` was run?
Answer: Its inhibition is 99%.

Question: What about the inhibition [2] of the same compound?
Answer: The inhibition was 38%.

Question: What about the IC50 [3] of the same compound?
Answer: The IC50 was 288 nM.

Question: And the Activity [4]?
Answer: The Activity was 1.66 mL.

Question: What about the Activity [5] of the same compound?
Answer: Its Activity is 2.04 mL.

Question: What about the Activity [6] of the same compound?
Answer: The Activity was 2.42 mL.

Question: What about the Activity [7] of the same compound?
Answer: Its Activity is 12.17%.

Question: And the Activity [8]?
Answer: Its Activity is 39.05%.

Question: What about the Activity [9] of the same compound?
Answer: Its Activity is 63.63%.

Question: And the Activity [10]?
Answer: Its Activity is 39.7%.

Question: And the Activity [11]?
Answer: Its Activity is 16.2%.

Question: What about the Activity [12] of the same compound?
Answer: Its Activity is 8.3%.

Question: How did the inhibition ([1]; filed as antagonist) turn out when `O=C(O)C1=C(C(=O)N2CCC(Cc3ccccc3)CC2)Oc2cc(OCc3ccccc3)ccc2O1` was run?
Answer: Its inhibition is 78%.

Question: And the inhibition [2]?
Answer: The inhibition was 27%.

Question: With `O=C(O)C1=C(C(=O)N2CCC(Cc3ccccc3)CC2)Oc2ccc(OCc3ccccc3)cc2O1` as the compound, how does the inhibition ([1]; filed as antagonist) read?
Answer: The inhibition was 98%.

Question: What about the inhibition [2] of the same compound?
Answer: The inhibition was 20%.

Question: And the IC50 [3]?
Answer: The IC50 was 477 nM.

Question: Which results are given for `CN(CCc1ccccc1)C(=O)C1=C(C(=O)O)Oc2cc(OCc3ccc4ccccc4c3)ccc2O1`?
Answer: inhibition ([1]; filed as antagonist): 97%; inhibition [2]: 18%; IC50 [3]: 710 nM

Question: Which results are given for `O=C(O)C1=C(C(=O)N2CCC(Cc3ccccc3)CC2)Oc2cccc(OCc3ccccc3)c2O1`?
Answer: inhibition ([1]; filed as antagonist): 62%; inhibition [2]: 0%; IC50 [3]: 5610 nM

Question: For `COc1ccc2c(c1)c(CC(=O)O)c(C)n2C(=O)c1ccc(Cl)cc1` [INDOMETHACIN], which Activity [13] is on record?
Answer: Its Activity is 1.65 mL.

Question: What about the Activity [14] of the same compound?
Answer: Its Activity is 1.85 mL.

Question: What about the Activity [15] of the same compound?
Answer: Its Activity is 2.06 mL.

Question: What about the Activity [16] of the same compound?
Answer: Its Activity is 11.1%.

Question: And the Activity [17]?
Answer: Its Activity is 24.64%.

Question: What about the Activity [18] of the same compound?
Answer: The Activity was 40.19%.

Question: What about the Activity [19] of the same compound?
Answer: The Activity was 45%.

Question: What about the Activity [20] of the same compound?
Answer: Its Activity is 45.3%.

Question: And the Activity [21]?
Answer: The Activity was 31.6%.

Question: Which inhibition ([1]; filed as antagonist) does the source give for `CN(CCc1ccccc1)C(=O)C1=C(C(=O)O)Oc2c(OCc3ccccc3)cccc2O1` here?
Answer: The inhibition was 94%.

Question: What about the inhibition [2] of the same compound?
Answer: The inhibition was 4.8%.

Question: And the IC50 [3]?
Answer: Its IC50 is 2700 nM.

Question: `CC1(CCOCc2ccccc2)OC(=O)C2=C1Oc1cc(OCc3ccccc3)ccc1O2` (configuration not stated) was tested. Which inhibition [1] did it give?
Answer: Its inhibition is 13%.

Question: What about the inhibition [2] of the same compound?
Answer: The inhibition was under 10%.

Question: What does the source list for `CC(OCc1ccccc1)C1=C(C(=O)O)Oc2ccc(OCc3ccccc3)cc2O1` (configuration not stated)?
Answer: inhibition ([1]; filed as antagonist): 73%; inhibition [2]: < 10%

Question: For `CCCc1c(OCCCOc2ccc(C(=O)NC)c(OC)c2CC2CC2)ccc2c1O[C@H](CCC(=O)O)CC2`, which Ki [22] is on record?
Answer: The Ki was 1.3 nM.

Question: `CCCc1ccccc1OCCCCCCc1cccc(OCCCCC(=O)O)c1CCC(=O)O` was tested. Which Ki [22] did it give?
Answer: The Ki was 1 nM.

Question: Which results are given for `O=C(O)C1=C(C(=O)N2CCC(c3ccccc3)CC2)Oc2cc(OCc3ccccc3)ccc2O1`?
Answer: inhibition [1]: 33%; inhibition [2]: 12%

Question: With `CC(OCc1ccc2ccccc2c1)C1=C(C(=O)O)Oc2ccc(OCc3ccccc3)cc2O1` (configuration not stated) as the compound, how does the inhibition ([1]; filed as antagonist) read?
Answer: Its inhibition is 74%.

Question: What about the inhibition [2] of the same compound?
Answer: The inhibition was 0%.

Question: Which inhibition ([1]; filed as antagonist) does the source give for `CN(CCc1ccccc1)C(=O)C1=COc2ccc(OCc3ccccc3)cc2O1` here?
Answer: The inhibition was 40%.

Question: And the inhibition [2]?
Answer: The inhibition was 0%.

Question: And the IC50 [3]?
Answer: Its IC50 is over 10000 nM.

Question: Which inhibition ([1]; filed as antagonist) does the source give for `CN(CCc1ccccc1)C(=O)C1=C(C(=O)O)Oc2ccc(OCc3ccccc3)cc2O1` here?
Answer: Its inhibition is 95%.

Question: What about the inhibition [2] of the same compound?
Answer: Its inhibition is 25%.

Question: And the IC50 [3]?
Answer: Its IC50 is 439 nM.
